What was measured:
[1] = Foam stability of polidocanol with single molecular weight (Tessari method); assay type: physicochemical; details: for Foam coalescence time / Foam drainage time: 1% solution in 4% solution of ethanol in PBS, Tessari method, gas-to-liquid ratio 3:1; for foam formed after thorough mixing with air: 1% solutions mixed with air at a volume ratio of 1:3
Protocol: Samples of polidocanol with a single molecular weight (DD-PEG8-OH, DD-PEG9-OH, and DD-PEG10-OH prepared in Example 1) and a control (polidocanol in a mixture state containing different molecular weights, purchased from Siegfried Hameln GmbH, Germany, batch number OK13103) were separately weighed and prepared into 1% solutions using a 4% solution of ethanol in PBS. The polidocanol was foamed using the Tessari method, i.e., two 2.5 mL syringes were connected via a three-way tube and rapidly pushed and pulled back and forth at a gas-to-liquid ratio of 3:1 until foam formed. All foam was collected into one syringe, the volume was brought to 2 mL, and the foam state was observed while standing. The following parameters were recorded: foam drainage time, foam halflife time, and foam coalescence time.

rabbit marginal ear vein = experiment: Venous sclerosing effect in the rabbit marginal ear vein model; assay type: in vivo; details: maximum volume 0.25 mL, calculated on number of rabbit ears
Protocol: The rabbit marginal ear vein was used as an experimental model to compare the effects of adding different concentrations of sodium hyaluronate on the venous sclerosing effect of polidocanol. The specific method was as follows: (1) Domestic rabbits were anesthetized with xylazine (2-5 mg/kg, intramuscular injection). Subsequently, the hair on the ears was shaved, and the area was disinfected using a 0.5% chlorhexidine alcohol solution. (2) The Tessari method was used to foam the polidocanol with the addition of sodium hyaluronate, i.e., two 10 mL syringes were connected via a three-way tube and rapidly pushed and pulled back and forth at a certain gas-to-liquid ratio until foam was formed. (3) A disposable syringe was used to puncture the marginal vein, and the sclerosant was injected slowly, with a maximum volume of 0.25 mL. […]
In this example, 14 days after the injection of different types of polidocanol into some rabbit marginal ear veins, some blood vessels were occluded. […] All rabbit ear blood vessels were scored, with effective ones recorded as 1 and ineffective ones recorded as 0.
The calculation rule for the effective rate was as follows: effective rate = score of rabbit ears/total number of rabbit ears × 100% (calculated based on the number of rabbit ears).
All rabbit ear blood vessels were scored, with effective ones recorded as 1 and ineffective ones recorded as 0. […]

| Foam coalescence time [1] [min] | Foam drainage time [1] [s] | Foam coalescence time ([1]; listed as P8 (1%)) [m] | foam formed after thorough mixing with air [1] | Foam coalescence time ([1]; listed as P10 (1%)) [m] | Compound | D14 effective rate (%) (rabbit marginal ear vein; venous sclerosis 14 days after injection of foam into rabbit marginal ear veins) | D21 effective rate (%) (rabbit marginal ear vein; venous sclerosis 21 days after injection of foam into rabbit marginal ear veins) |
| --- | --- | --- | --- | --- | --- | --- | --- |
| 13 | 3 | 13 | formed homogeneous foam |  | CCCCCCCCCCCCOCCOCCOCCOCCOCCOCCOCCOCCO [P8] |  |  |
|  |  |  |  |  | CCCCCCCCCCCCOCCOCCOCCOCCOCCOCCOCCOCCOCCO [P9] | 91.67 | 83.33 |
| 20 | 8 |  | formed homogeneous foam | 20 | CCCCCCCCCCCCOCCOCCOCCOCCOCCOCCOCCOCCOCCOCCO [P10] |  |  |
